In the NIST ThermoML archive (doi:10.1016/j.tca.2016.03.013):
“And” between values parts separate entries of the source, which are not always exact repeats. Identical values can stand only once.

Columns and labels:
[1] = for vapor or sublimation pressure: Liquid, Rate of evaporation; for Normal melting temperature: DTA
[2] = Molar enthalpy of transition or fusion; settings: DSC
[3] = molar heat capacity at constant pressure; settings: 101.33 kPa, Small sample (50 mg) DSC

C1COCCOCCOCCOCCOCCO1 [1,4,7,10,13,16-hexaoxacyclooctadecane]
Settings	Molar enthalpy of transition or fusion [kcal/mol]	Normal melting temperature [°C]	vapor or sublimation pressure
[1], 430 K	–	–	0.3102 kPa and 0.3376 kPa and 0.3358 kPa
[1], 435 K	–	–	0.4315 kPa and 0.4219 kPa and 0.4305 kPa
[1], 440 K	–	–	0.5414 kPa and 0.5488 kPa and 0.5487 kPa
[1], 445 K	–	–	0.6904 kPa and 0.6934 kPa and 0.6846 kPa
[1], 450 K	–	–	0.858 kPa and 0.8682 kPa and 0.8441 kPa
[1], 455 K	–	–	1.063 kPa and 1.052 kPa
[1], 460 K	–	–	1.315 kPa and 1.31 kPa and 1.317 kPa
[1], 465 K	–	–	1.616 kPa and 1.619 kPa and 1.602 kPa
[1], 470 K	–	–	1.972 kPa and 1.959 kPa and 1.967 kPa
[1], 475 K	–	–	2.394 kPa and 2.387 kPa and 2.399 kPa
[1], 480 K	–	–	2.879 kPa and 2.853 kPa and 2.858 kPa
[1], Crystal	–	39.17	–
[2], Crystal	9.56	–	–

[3]
Settings	molar heat capacity at constant pressure [J/K/mol]
290 K, Crystal	380.3
291 K, Crystal	388.3
292 K, Crystal	394.8
293 K, Crystal	401.7
294 K, Crystal	409.8
295 K, Crystal	418.9
296 K, Crystal	428.4
297 K, Crystal	440.7
298 K, Crystal	457
298.15 K, Crystal	460
299 K, Crystal	479.4
315 K, Liquid	515
320 K, Liquid	516.5
325 K, Liquid	518.7
330 K, Liquid	521.5
335 K, Liquid	522.8
340 K, Liquid	524.9
345 K, Liquid	526.3
350 K, Liquid	527.8
355 K, Liquid	528.8
410 K, Liquid	562.4
415 K, Liquid	567.4
420 K, Liquid	573.6
425 K, Liquid	578.6
430 K, Liquid	582.6
435 K, Liquid	587.1
440 K, Liquid	590.4
445 K, Liquid	595.2
450 K, Liquid	599.4
455 K, Liquid	603
460 K, Liquid	607.7
465 K, Liquid	612.5
470 K, Liquid	617.4
475 K, Liquid	621.3
480 K, Liquid	626.4
485 K, Liquid	630.9
490 K, Liquid	635.9

[Al+3].[Al+3].[O-2].[O-2].[O-2] [aluminum oxide (Al2O3)]
[3], Crystal
Settings	molar heat capacity at constant pressure [J/K/mol]
298.15 K	78.8
350 K	88.2
450 K	101.33

c1ccc2cc3ccccc3cc2c1 [anthracene]
[1]
Settings	vapor or sublimation pressure [kPa]
494 K	5.794
496 K	6.242
498 K	6.713
500 K	7.174
502 K	7.662
504 K	8.173
506 K	8.694
508 K	9.227
510 K	9.775
512 K	10.31

c1ccc2c(c1)OCCOCCOCCOc1ccccc1OCCOCCOCCO2 [dibenzo-24-crown-8]
Settings	Molar enthalpy of transition or fusion [kcal/mol]	Normal melting temperature [°C]	Triple point temperature [K]	vapor or sublimation pressure
[1], 545 K	–	–	–	0.114 kPa and 0.1131 kPa and 0.1132 kPa
[1], 550 K	–	–	–	0.1434 kPa and 0.1414 kPa and 0.1402 kPa
[1], 555 K	–	–	–	0.1736 kPa and 0.1757 kPa and 0.1786 kPa
[1], 560 K	–	–	–	0.2155 kPa and 0.2204 kPa and 0.2198 kPa
[1], 565 K	–	–	–	0.2674 kPa and 0.2714 kPa and 0.2733 kPa
[1], 570 K	–	–	–	0.3406 kPa and 0.3372 kPa and 0.3358 kPa
[1], 575 K	–	–	–	0.4082 kPa and 0.4133 kPa and 0.4103 kPa
[1], 580 K	–	–	–	0.4998 kPa and 0.5082 kPa and 0.5036 kPa
[1], 585 K	–	–	–	0.607 kPa and 0.6171 kPa and 0.6145 kPa
[1], 590 K	–	–	–	0.7381 kPa and 0.7487 kPa and 0.7461 kPa
[1], 595 K	–	–	–	0.9028 kPa and 0.897 kPa and 0.9062 kPa
[1], Crystal 1	–	100.72	–	–
[1], Crystal 2, DSC	–	–	346.32	–
[2], Crystal 1	12.8	–	–	–
[2], Crystal 2	0.234	–	–	–

[3]
Settings	molar heat capacity at constant pressure [J/K/mol]
295 K, Crystal 2	602
298.15 K, Crystal 2	611.3
300 K, Crystal 2	615.7
305 K, Crystal 2	627.3
310 K, Crystal 2	638.8
315 K, Crystal 2	648
320 K, Crystal 2	658.1
325 K, Crystal 2	668.9
330 K, Crystal 2	681.3
335 K, Crystal 2	692.8
340 K, Crystal 2	706.2
355 K, Crystal 1	755.6
360 K, Crystal 1	771.8
365 K, Crystal 1	802
380 K, Liquid	921.2
385 K, Liquid	922.5
390 K, Liquid	927.3
395 K, Liquid	930.4
400 K, Liquid	934.6
405 K, Liquid	938.7
410 K, Liquid	943.5
415 K, Liquid	947.5
420 K, Liquid	956.1
425 K, Liquid	962.6
430 K, Liquid	968.4
435 K, Liquid	974.4
440 K, Liquid	979
445 K, Liquid	985.6
450 K, Liquid	990.7
455 K, Liquid	996.8
460 K, Liquid	1003.2
465 K, Liquid	1009.9
470 K, Liquid	1016.5
475 K, Liquid	1020.4
480 K, Liquid	1025.3
485 K, Liquid	1030.6
490 K, Liquid	1036.3

c1ccc2c(c1)OCCOCCOCCOCCOc1ccccc1OCCOCCOCCOCCO2 [dibenzo-30-crown-10]
Settings	Molar enthalpy of transition or fusion [kcal/mol]	Normal melting temperature [°C]	vapor or sublimation pressure
[1], 545 K	–	–	0.0347 kPa and 0.0354 kPa
[1], 550 K	–	–	0.0405 kPa and 0.0424 kPa and 0.0433 kPa
[1], 555 K	–	–	0.0515 kPa and 0.0526 kPa and 0.0536 kPa
[1], 560 K	–	–	0.0655 kPa and 0.0614 kPa and 0.0649 kPa
[1], 565 K	–	–	0.0772 kPa and 0.0781 kPa and 0.0764 kPa
[1], 570 K	–	–	0.0969 kPa and 0.0924 kPa and 0.0946 kPa
[1], 575 K	–	–	0.116 kPa and 0.118 kPa and 0.1176 kPa
[1], 580 K	–	–	0.1429 kPa and 0.1455 kPa and 0.1444 kPa
[1], 585 K	–	–	0.1768 kPa and 0.1779 kPa and 0.188 kPa
[1], 590 K	–	–	0.2184 kPa and 0.2143 kPa and 0.2192 kPa
[1], 595 K	–	–	0.2675 kPa and 0.2625 kPa and 0.2682 kPa
[1], Crystal	–	104.5	–
[2], Crystal	20.7	–	–

[3]
Settings	molar heat capacity at constant pressure [J/K/mol]
295 K, Crystal	668.8
298.15 K, Crystal	680.4
300 K, Crystal	686.9
305 K, Crystal	700.3
310 K, Crystal	715.3
315 K, Crystal	728.4
320 K, Crystal	741.6
325 K, Crystal	755.5
330 K, Crystal	769.9
335 K, Crystal	783.3
340 K, Crystal	797
345 K, Crystal	811.5
350 K, Crystal	826.4
355 K, Crystal	844.9
360 K, Crystal	868.2
390 K, Liquid	1144.6
395 K, Liquid	1148.9
400 K, Liquid	1153
405 K, Liquid	1159.5
410 K, Liquid	1164.6
415 K, Liquid	1169.3
420 K, Liquid	1179.2
425 K, Liquid	1186.2
430 K, Liquid	1187.9
435 K, Liquid	1195
440 K, Liquid	1196.6
445 K, Liquid	1199.2
450 K, Liquid	1201.2
455 K, Liquid	1200.9
460 K, Liquid	1201.6
465 K, Liquid	1202
470 K, Liquid	1201.9

c1ccc2c(c1)OCCOCCOc1ccccc1OCCOCCO2 [dibenzo[b,k][1,4,7,10,13,16]hexaoxacyclooctadecane]
Settings	Molar enthalpy of transition or fusion [kcal/mol]	Normal melting temperature [°C]	vapor or sublimation pressure
[1], 545 K	–	–	0.5186 kPa and 0.4924 kPa and 0.5452 kPa
[1], 550 K	–	–	0.6057 kPa and 0.6363 kPa and 0.6637 kPa
[1], 555 K	–	–	0.7424 kPa and 0.8052 kPa and 0.7755 kPa
[1], 560 K	–	–	0.9045 kPa and 0.9751 kPa and 0.9424 kPa
[1], 565 K	–	–	1.095 kPa and 1.169 kPa and 1.137 kPa
[1], 570 K	–	–	1.323 kPa and 1.398 kPa and 1.369 kPa
[1], 575 K	–	–	1.589 kPa and 1.663 kPa and 1.638 kPa
[1], 580 K	–	–	1.903 kPa and 1.969 kPa and 1.948 kPa
[1], 585 K	–	–	2.258 kPa and 2.321 kPa and 2.316 kPa
[1], 590 K	–	–	2.673 kPa and 2.72 kPa and 2.717 kPa
[1], 595 K	–	–	3.164 kPa and 3.142 kPa and 3.16 kPa
[1], Crystal	–	162.50	–
[2], Crystal	13.4	–	–

[3]
Settings	molar heat capacity at constant pressure [J/K/mol]
295 K, Crystal	434.6
298.15 K, Crystal	439.7
300 K, Crystal	443.6
305 K, Crystal	449
310 K, Crystal	457.8
315 K, Crystal	462.9
320 K, Crystal	468.4
325 K, Crystal	474.6
330 K, Crystal	481.5
335 K, Crystal	487.5
340 K, Crystal	494.7
345 K, Crystal	500.5
350 K, Crystal	506.2
355 K, Crystal	513.3
360 K, Crystal	520.1
365 K, Crystal	527
370 K, Crystal	533.2
375 K, Crystal	540.2
380 K, Crystal	547.6
385 K, Crystal	555.2
390 K, Crystal	563.2
395 K, Crystal	571.3
400 K, Crystal	580.1
405 K, Crystal	588.7
410 K, Crystal	596.8
415 K, Crystal	604.8
445 K, Liquid	755.4
450 K, Liquid	761
455 K, Liquid	768.7
460 K, Liquid	772.5
465 K, Liquid	780.2
470 K, Liquid	787
475 K, Liquid	792
480 K, Liquid	799.7
485 K, Liquid	806
490 K, Liquid	812.6

c1ccc2c(c1)ccc1ccccc12 [phenanthrene]
[1]
Settings	vapor or sublimation pressure [kPa]
384 K	0.0567
388 K	0.0795
392 K	0.097
396 K	0.1144
400 K	0.146
404 K	0.1785
408 K	0.2069
412 K	0.2439
416 K	0.2926
420 K	0.3468
